# Reference: PubChem BioAssay AID651836 (Sanford-Burnham Center for Chemical Genomics, 2012)
# Several values for one entry are separate records, joined by “and”; a condition that tells them apart may be missing. Identical values can stand only once. Activity calls are given as the source filed them. How the calls were made is not given here.
# System: Gli-SUFU luciferase reporter cells, luminescence
# Experiment: analogs blocking Gli reporter signaling – cell-based, luciferase luminescence, set 1, SAR follow-up (AID 651836)
row,IC50,Compound
1,> 11.7 µM (inactive),O=C(Nc1cc(N2CCCCC2)ncn1)c1ccc2ccccc2c1
2,> 11.7 µM (inactive),O=C(Nc1cc(N2CCCC2)ncn1)c1cccc(F)c1
3,> 11.7 µM (inactive),CC(C)CNc1cc(NC(=O)c2cccc(F)c2)ncn1
4,> 11.7 µM (inactive),CN(C)c1cc(NC(=O)c2ccccc2F)ncn1
5,> 11.7 µM (inactive),Cc1ccc(C(=O)Nc2cc(N3CCCCC3)ncn2)cc1
6,> 11.7 µM (inactive),O=C(Nc1cc(N2CCCCC2)ncn1)c1cccc2ccccc12
7,> 11.7 µM (inactive),CCN(CC)c1cc(NC(=O)c2cccc(F)c2)ncn1
8,> 11.7 µM (inactive),COc1cccc(C(=O)Nc2cc(N3CCCCC3)ncn2)c1
9,> 11.7 µM (inactive),CC(C)(C)Nc1cc(NC(=O)c2ccccc2)ncn1
10,0.636 µM,CCOc1ccc(S(=O)(=O)NCc2ccncc2)cc1NC(=O)c1ccccc1
11,> 11.7 µM (inactive),CCN(CC)c1cc(NC(=O)c2ccccc2)nc(C)n1
12,> 11.7 µM (inactive),CCN(CC)c1cc(NC(=O)c2ccccc2)ncn1
13,> 11.7 µM (inactive),O=C(Nc1cc(N2CCCCC2)ncn1)c1ccco1
14,> 11.7 µM (inactive),O=C(Nc1cc(N2CCCCC2)ncn1)c1cc2ccccc2s1
15,> 11.7 µM (inactive),O=C(Nc1cc(N2CCCC2)ncn1)c1ccccc1F
16,> 11.7 µM (inactive),O=C(Nc1cc(NCC2CCCO2)ncn1)c1ccccc1 (stereo unspecified)
17,> 11.7 µM (inactive),CCN(CC)c1cc(NC(=O)c2cc(OC)cc(OC)c2)ncn1
18,> 11.7 µM (inactive),O=C(Nc1cc(N2CCOCC2)ncn1)c1ccccc1
19,> 11.7 µM (inactive),O=C(Nc1cc(N2CCSCC2)ncn1)c1ccccc1

row,IC50,Compound
1,> 11.7 µM (inactive),Cc1nc(NC(=O)c2ccccc2)cc(N(C)C)n1
2,> 11.7 µM (inactive),Cc1nc(NC(=O)c2ccccc2)cc(N2CCCCC2)n1
3,0.176 µM,O=C(Nc1cc(N2CCCCC2)ncn1)c1ccccc1F
4,> 11.7 µM (inactive),O=C(Nc1cc(N2CCCCC2)ncn1)c1ccc(Br)o1
5,0.0566 µM and 0.0242 µM,O=C(Nc1cc(N2CCCCC2)ncn1)c1ccccc1
6,> 11.7 µM (inactive),CC1CCCCN1c1cc(NC(=O)c2ccccc2)ncn1 (stereo unspecified)
7,> 11.7 µM (inactive),CN(C)c1cc(NC(=O)c2cccc(C#N)c2)ncn1
8,> 11.7 µM (inactive),COc1cc(OC)cc(C(=O)Nc2cc(Nc3cccc(Cl)c3)ncn2)c1
9,> 11.7 µM (inactive),N#Cc1cccc(C(=O)Nc2cc(N3CCCCC3)ncn2)c1
10,> 11.7 µM (inactive),O=C(Nc1cc(N2CCCCC2)ncn1)c1ccc(Cl)cc1
11,> 11.7 µM (inactive),CC(C)Nc1cc(NC(=O)c2ccccc2)ncn1
12,> 11.7 µM (inactive),Cc1nc(NC(=O)c2ccccc2)cc(N2CCCC2)n1
13,> 11.7 µM (inactive),O=C(Nc1cc(N2CCCCC2)ncn1)c1ccccc1C(F)(F)F
14,> 11.7 µM (inactive),O=C(Nc1cc(N2CCCCC2)ncn1)c1cccc(F)c1
15,0.556 µM,CCN(CC)c1cc(NC(=O)c2ccccc2F)ncn1
16,> 11.7 µM (inactive),CCN(CC)c1cc(NC(=O)c2cccc(C#N)c2)ncn1
17,> 11.7 µM (inactive),CCCCNc1cc(NC(=O)c2ccccc2)ncn1
18,0.0741 µM,O=C(Nc1cc(N2CCCCCC2)ncn1)c1ccccc1
19,> 11.7 µM (inactive),O=C(Nc1cc(N2CCCCC2)ncn1)c1ccsc1

row,IC50,Compound
1,> 11.7 µM (inactive),CN(C)c1cc(NC(=O)c2cccc(F)c2)ncn1
2,> 11.7 µM (inactive),O=C(Nc1cc(N2CCCCC2)ncn1)c1cccs1
3,> 11.7 µM (inactive),CCC(C)Nc1cc(NC(=O)c2ccccc2)ncn1 (stereo unspecified)
4,> 11.7 µM (inactive),O=C(Nc1cc(N2CCCCC2)ncn1)c1ccc(C(F)(F)F)cc1
5,> 11.7 µM (inactive),COc1cc(OC)cc(C(=O)Nc2cc(N(C)C)ncn2)c1
6,> 11.7 µM (inactive),COc1cc(OC)cc(C(=O)Nc2cc(N3CCCC3)ncn2)c1
7,> 11.7 µM (inactive),CN1CCN(c2cc(NC(=O)c3ccccc3)ncn2)CC1
8,> 11.7 µM (inactive),CCCCN(C)c1cc(NC(=O)c2ccccc2)ncn1
9,0.0378 µM,CCOc1ccc(-c2nc(CSCC(=O)NC3CC3)c(C)o2)cc1
10,> 11.7 µM (inactive),N#Cc1ccc(C(=O)Nc2cc(N3CCCCC3)ncn2)cc1
11,> 11.7 µM (inactive),CC(C)(C)OC(=O)N1CCN(c2cc(NC(=O)c3ccccc3)ncn2)CC1
12,> 11.7 µM (inactive),O=C(Nc1cc(N2CCNCC2)ncn1)c1ccccc1
13,> 11.7 µM (inactive),CCN(CC)c1cc(NC(=O)c2ccc(Br)o2)ncn1
14,0.037 µM,CC1CCN(c2cc(NC(=O)c3ccccc3)ncn2)CC1
15,> 11.7 µM (inactive),COc1cc(OC)cc(C(=O)Nc2cc(N3CCCCC3)ncn2)c1
16,> 11.7 µM (inactive),CN(C)c1cc(NC(=O)c2ccccc2)ncn1
17,> 11.7 µM (inactive),CC(C)CNc1cc(NC(=O)c2ccccc2)ncn1
18,> 11.7 µM (inactive),O=C(Nc1cc(N2CCCC2)ncn1)c1ccccc1
